Experimental data: patent US4397868A, “Method of treating atherosclerosis with trisubstituted ureas” (American Cyanamid Company, priority 1982, dated 1983)

System: fatty acyl CoA:cholesterol acyl transferase (ACAT)
Assay: In vitro inhibition of fatty acyl CoA:cholesterol acyl transferase (ACAT), rat adrenal microsomal supernatant
Type: biochemical
Settings: test compound final concentration 5.2 μg./ml., 14C-oleoyl CoA, 37° C., 10 minutes
Experimental: A representative compound of the present invention was assayed for a biological activity related to potential use as an antiatherosclerotic agent. The compound was tested in vitro for its ability to inhibit the enzyme fatty acyl CoA:cholesterol acyl transferase (ACAT).
A representative compound was tested for its ability to inhibit ACAT according to the following procedure:
Rat adrenals were homogenized in 0.2 M monobasic potassium phosphate buffer, pH 7.4, and centrifuged at 1000 times gravity for 15 minutes at 5° C. The supernatant, containing the microsomal fraction, served as the source of the cholesterol-esterifying enzyme, fatty acyl CoA:cholesterol acyl transferase (ACAT). A mixture comprising 50 parts of adrenal supernatant, 10 parts of albumin (BSA) (50 mg./ml.), 3 parts of test compound (final concentration 5.2 μg./ml.) and 500 parts of buffer was preincubated at 37° C. for 10 minutes. After treatment with 20 parts of oleoyl CoA (^14 C-0.4 μCi) the mixture was incubated at 37° C. for 10 minutes. A control mixture, omitting the test compound, was prepared and treated in the same manner. The lipids from the incubation mixture were extracted into an organic solvent and separated by thin-layer chromatography. The cholesterol ester fraction was counted in a scintillation counter. […]

## CCCCN(Cc1ccccc1)C(=O)Nc1ccccc1 [Example 1, 1-Benzyl-1-(n-butyl)-3-(phenyl)urea]
  inhibited ACAT: 82%
